Assay results taken from patent publication US8586747B2, “3,3-dimethyl tetrahydroquinoline derivatives” (Hoffmann-La Roche Inc., priority 2010, dated 2013).

Test system: AMP-activated protein kinase (AMPK)
Experiment: ADP Quest assay for AMPK activators
Assay type: biochemical
Parameters: key: fold AMPK activation with vs without activator at 30 µM
Details: fold of AMPK activation to phosphorylate SAMS peptide without and with an activator at the concentration of 30 µM
In short: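 E30, the fold increase in SAMS peptide phosphorylation at 30 µM compound relative to no activator, is derived from kinetic fluorescent detection of ADP (ex 530, em 590 nm). AMPK starts the ATP-containing reaction at room temperature; compounds span […] by 2-fold steps, AMP serves as reference.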

E30: 1.29
SMILES: CC(C)(Oc1cccc(C2Nc3ccc(C(=O)O)cc3CC2(C)C)c1)C(=O)O (stereo not shown) [Example 233, 2-(3-(2-Carboxypropan-2-yloxy)phenyl)-3,3-dimethyl-1,2,3,4-tetrahydroquinoline-6-carboxylic acid]
